Data reported in ChEMBL document CHEMBL5518181, “Studies of antibacterial activity (in vitro and in vivo) and mode of action for des-acyl tridecaptins (DATs)” (Eur J Med Chem, 2024).
Converted amounts (≈) assume the structure as drawn. The source made the active and inactive calls. The rule behind the calls is not given here.

Legend:
Escherichia coli [1] = assay: Antibacterial activity against wild-type Escherichia coli ATCC 25922 assessed as inhibition of bacterial growth incubated for 18 hrs; assay type: functional; settings: read-out: MIC100
Klebsiella pneumoniae [2] = assay: Antibacterial activity against wild-type Klebsiella pneumoniae ATCC 13883 assessed as inhibition of bacterial growth incubated for 18 hrs; assay type: functional; settings: read-out: MIC100
[3] = Hemolytic activity in human red blood cells at 400 ug/ml incubated for 45 mins by spectrophotometric analysis relative to control; assay type: toxicity, cell-based, Erythrocyte; settings: red blood cells (erythrocytes), at 400 µg/mL, read-out: Activity
[4] = Cytotoxicity against human HepG2 cells incubated for 40 hrs by celltiter-glo luminescent cell viability assay; assay type: toxicity, cell-based
Escherichia coli [5] = assay: Antibacterial activity against wild-type Escherichia coli ATCC 25922 assessed as inhibition of bacterial growth incubated for 18 hrs in presence of 50% heat inactivated human serum; assay type: functional; settings: read-out: MIC100
Escherichia coli [6] = assay: Antibacterial activity against Escherichia coli ATCC 25922 harboring hldE knock-out assessed as inhibition of bacterial growth incubated for 18 hrs; assay type: functional; settings: read-out: MIC100
Escherichia coli [7] = assay: Antibacterial activity against Escherichia coli ATCC 25922 harboring tolC knock-out assessed as inhibition of bacterial growth incubated for 18 hrs; assay type: functional; settings: read-out: MIC100
Klebsiella pneumoniae [8] = assay: Antibacterial activity against wild-type Klebsiella pneumoniae ATCC 13883 assessed as inhibition of bacterial growth incubated for 18 hrs in presence of 50% heat inactivated human serum; assay type: functional; settings: read-out: MIC100
Acinetobacter baumannii = assay: Antibacterial activity against wild-type Acinetobacter baumannii ATCC 19606 assessed as inhibition of bacterial growth incubated for 20 hrs; assay type: functional; settings: read-out: MIC100
Pseudomonas aeruginosa [9] = assay: Antibacterial activity against wild-type Pseudomonas aeruginosa PAO1 assessed as inhibition of bacterial growth incubated for 24 hrs; assay type: functional; settings: read-out: MIC100
Staphylococcus aureus [10] = assay: Antibacterial activity against […] assessed as inhibition of bacterial growth incubated for 18 hrs; assay type: functional; settings: ATCC 29213, read-out: MIC100
[11] = Hydrophobicity of compound assessed as %MeCN at peak elution by RP-HPLC analysis; assay type: physicochemical
[12] = Lipophilicity, logD of compound at pH 7.4; assay type: physicochemical; settings: buffer
[13] = Aqueous solubility of compound at pH 4.6; assay type: physicochemical
[14] = Aqueous solubility of compound at pH 7.4; assay type: physicochemical
[15] = Clearance in mouse microsomes; assay type: ADME, Microsome
[16] = Clearance in rat microsomes; assay type: ADME, Microsome
[17] = Clearance in human microsomes; assay type: ADME, Microsome
Citrobacter freundii = assay: Antibacterial activity against Citrobacter freundii ATCC 8090 assessed as inhibition of bacterial growth incubated for 18 hrs; assay type: functional; settings: read-out: MIC100
Klebsiella pneumoniae [18] = assay: Antibacterial activity against Klebsiella pneumoniae ATCC BAA-2470 expressing NDM-1 assessed as inhibition of bacterial growth incubated for 18 hrs; assay type: functional; settings: read-out: MIC100
Klebsiella pneumoniae [19] = assay: Antibacterial activity against Klebsiella pneumoniae ATCC 43816 assessed as inhibition of bacterial growth incubated for 18 hrs; assay type: functional; settings: read-out: MIC100
Klebsiella aerogenes = assay: Antibacterial activity against Enterobacter aerogenes ATCC 13048 assessed as inhibition of bacterial growth incubated for 18 hrs; assay type: functional; settings: read-out: MIC100
Enterobacter cloacae = assay: Antibacterial activity against Enterobacter cloacae ATCC 23355 assessed as inhibition of bacterial growth incubated for 18 hrs; assay type: functional; settings: read-out: MIC100
Escherichia coli [20] = assay: Antibacterial activity against Escherichia coli ATCC BAA-2469 expressing NDM-1 assessed as inhibition of bacterial growth incubated for 18 hrs; assay type: functional; settings: read-out: MIC100
Escherichia coli [21] = assay: Antibacterial activity against colistin resistant Escherichia coli NCTC 13846 harboring mcr-1 gene assessed as inhibition of bacterial growth incubated for 18 hrs; assay type: functional; settings: read-out: MIC100
Morganella morganii = assay: Antibacterial activity against Morganella morganii ATCC 25830 assessed as inhibition of bacterial growth incubated for 18 hrs; assay type: functional; settings: read-out: MIC100
Proteus mirabilis [22] = assay: Antibacterial activity against Proteus mirabilis ATCC 25933 assessed as inhibition of bacterial growth incubated for 18 hrs; assay type: functional; settings: read-out: MIC100
Proteus mirabilis [23] = assay: Antibacterial activity against Proteus mirabilis ATCC 7002 assessed as inhibition of bacterial growth incubated for 18 hrs; assay type: functional; settings: read-out: MIC100
Providencia stuartii = assay: Antibacterial activity against Providencia stuartii ATCC 25826 assessed as inhibition of bacterial growth incubated for 18 hrs; assay type: functional; settings: read-out: MIC100
Salmonella typhimurium = assay: Antibacterial activity against Salmonella typhimurium ATCC 13311 assessed as inhibition of bacterial growth incubated for 18 hrs; assay type: functional, Salmonella enterica subsp. enterica serovar Typhimurium; settings: Salmonella enterica, read-out: MIC100
Serratia marcescens = assay: Antibacterial activity against intrinsically colistin resistant Serratia marcescens ATCC 13880 assessed as inhibition of bacterial growth incubated for 18 hrs; assay type: functional; settings: read-out: MIC100
Pseudomonas aeruginosa [24] = assay: Antibacterial activity against efflux-deficient Pseudomonas aeruginosa PAO750 assessed as inhibition of bacterial growth incubated for 18 hrs; assay type: functional; settings: read-out: MIC100
Staphylococcus aureus [25] = assay: Antibacterial activity against wild type Staphylococcus aureus USA300 assessed as inhibition of bacterial growth incubated for 18 hrs; assay type: functional; settings: read-out: MIC100
Escherichia coli [26] = assay: Antibacterial activity against Escherichia coli ATCC 25922 assessed as inhibition of bacterial growth incubated for 18 hrs in presence of 150 mM NaCl; assay type: functional, organism-based
Escherichia coli [27] = assay: Antibacterial activity against Escherichia coli ATCC 25922 assessed as inhibition of bacterial growth incubated for 18 hrs in presence of 5 mM KCl; assay type: functional, organism-based
Escherichia coli [28] = assay: Antibacterial activity against Escherichia coli ATCC 25922 assessed as inhibition of bacterial growth incubated for 18 hrs in presence of 2 mM CaCl2; assay type: functional, organism-based
Escherichia coli [29] = assay: Antibacterial activity against Escherichia coli ATCC 25922 assessed as inhibition of bacterial growth incubated for 18 hrs in presence of 2 mM MgCl2; assay type: functional, organism-based
Escherichia coli [30] = assay: Antibacterial activity against Escherichia coli ATCC 25922 assessed as inhibition of bacterial growth incubated for 18 hrs in presence of 25 mM bicarbonate; assay type: functional, organism-based
Klebsiella pneumoniae [31] = assay: Antibacterial activity against Klebsiella pneumoniae ATCC 13883 assessed as inhibition of bacterial growth incubated for 18 hrs in presence of 150 mM NaCl; assay type: functional, organism-based
Klebsiella pneumoniae [32] = assay: Antibacterial activity against Klebsiella pneumoniae ATCC 13883 assessed as inhibition of bacterial growth incubated for 18 hrs in presence of 5 mM KCl; assay type: functional, organism-based
Klebsiella pneumoniae [33] = assay: Antibacterial activity against Klebsiella pneumoniae ATCC 13883 assessed as inhibition of bacterial growth incubated for 18 hrs in presence of 2 mM CaCl2; assay type: functional, organism-based
Klebsiella pneumoniae [34] = assay: Antibacterial activity against Klebsiella pneumoniae ATCC 13883 assessed as inhibition of bacterial growth incubated for 18 hrs in presence of 2 mM MgCl2; assay type: functional, organism-based
Klebsiella pneumoniae [35] = assay: Antibacterial activity against Klebsiella pneumoniae ATCC 13883 assessed as inhibition of bacterial growth incubated for 18 hrs in presence of 25 mM bicarbonate; assay type: functional, organism-based
[36] = Drug uptake in Escherichia coli ATCC 25922 at 10 uM incubated for 10 mins by LC-MS/MS analysis; assay type: ADME
[37] = Drug localization in cytoplasm of Escherichia coli ATCC 25922 at 10 uM incubated for 10 mins by LC-MS/MS analysis; assay type: ADME, subcellular
[38] = Drug uptake in Pseudomonas aeruginosa PAO1 whole cells at 10 uM incubated for 10 mins by LC-MS/MS analysis; assay type: ADME
[39] = Drug uptake in Escherichia coli ATCC 25922 whole cells at 10 uM incubated for 10 mins by LC-MS/MS analysis; assay type: ADME
[40] = Drug uptake in Acinetobacter baumannii ATCC 19606 whole cells at 10 uM incubated for 10 mins by LC-MS/MS analysis; assay type: ADME
[41] = Drug uptake in Proteus mirabilis ATCC 7002 whole cells at 10 uM incubated for 10 mins by LC-MS/MS analysis; assay type: ADME
[42] = Binding affinity to gram negative bacterial lipid II assessed as dissociation constant by ITC analysis; parameters: species or system Bacteria
Lipopolysaccharide (LPS) [43] = assay: Binding affinity to Escherichia coli O55:B5 LPS assessed as dissociation constant by ITC analysis; assay type: subcellular
Lipopolysaccharide (LPS) [44] = assay: Binding affinity to Pseudomonas aeruginosa LPS assessed as dissociation constant by ITC analysis; assay type: subcellular
Cell membrane [45] = assay: Induction of membrane permeabilization in Escherichia coli ATCC 25922 at 64 ug/ml measured immediately by Sytox Green labelling based microscopic analysis; assay type: cell membranes; settings: dose 64.0 µg/ml
Cell membrane [46] = assay: Induction of membrane permeabilization in Escherichia coli ATCC 25922 at 64 ug/ml measured after 30 mins by Sytox Green labelling based microscopic analysis; assay type: cell membranes; settings: dose 64.0 µg/ml
Cell membrane [47] = assay: Induction of membrane permeabilization in Escherichia coli ATCC 25922 at 64 ug/ml measured after 2 hrs by Sytox Green labelling based microscopic analysis; assay type: cell membranes; settings: dose 64.0 µg/ml
Cell membrane [48] = assay: Induction of membrane permeabilization in Klebsiella pneumoniae ATCC 13883 at 64 ug/ml measured after 30 mins by Sytox Green labelling based microscopic analysis; assay type: cell membranes; settings: dose 64.0 µg/ml
Cell membrane [49] = assay: Induction of membrane permeabilization in Klebsiella pneumoniae ATCC 13883 at 64 ug/ml measured after 2 hrs by Sytox Green labelling based microscopic analysis; assay type: cell membranes; settings: dose 64.0 µg/ml

Structure (SMILES): CC[C@H](C)[C@@H](NC(=O)[C@@H](NC(=O)[C@H](CCC(=O)O)NC(=O)[C@H](Cc1ccccc1)NC(=O)[C@@H](CCN)NC(=O)[C@H](CCN)NC(=O)[C@H](CO)NC(=O)[C@@H](Cc1c[nH]c2ccccc12)NC(=O)[C@@H](CO)NC(=O)CNC(=O)[C@@H](CCN)NC(=O)[C@H](N)C(C)C)C(C)C)C(=O)N[C@@H](C)C(=O)O
- MIC (Escherichia coli [1]): 32 µg/mL (≈ 22.9 µM)
- MIC (Klebsiella pneumoniae [2]): 32 µg/mL (≈ 22.9 µM)
- hemolysis at 0.75 h, 400 ug/ml [3]: 3.6%
- IC50 at 40 h [4]: 76 µg/mL (≈ 54.5 µM)
- MIC (Escherichia coli [5]): 32 µg/mL
- MIC (Escherichia coli [6]): 8 µg/mL (≈ 5.74 µM)
- MIC (Escherichia coli [7]): > 32 µg/mL
- MIC (Klebsiella pneumoniae [8]): 8 µg/mL
- MIC (Acinetobacter baumannii): 32 µg/mL (≈ 22.9 µM)
- MIC (Pseudomonas aeruginosa [9]): > 64 µg/mL
- MIC (Staphylococcus aureus [10]): 32 µg/mL (≈ 22.9 µM)
- MeCN percentage at peak elution [11]: 42%
- logD [12]: 1.09
- solubility [13]: > 1000 µg/mL
- solubility [14]: > 1000 µg/mL
- microsomal CLint [15]: 25 µL/min/mg
- microsomal CLint [16]: 108 µL/min/mg
- microsomal CLint [17]: 22 µL/min/mg
- MIC (Citrobacter freundii): 32 µg/mL (≈ 22.9 µM)
- MIC (Klebsiella pneumoniae [18]): 32 µg/mL (≈ 22.9 µM)
- MIC (Klebsiella pneumoniae [19]): 8 µg/mL (≈ 5.74 µM)
- MIC (Klebsiella aerogenes): > 32 µg/mL
- MIC (Enterobacter cloacae): > 32 µg/mL
- MIC (Escherichia coli [20]): > 32 µg/mL
- MIC (Escherichia coli [21]): 32 µg/mL (≈ 22.9 µM)
- MIC (Morganella morganii): > 32 µg/mL
- MIC (Proteus mirabilis [22]): > 32 µg/mL
- MIC (Proteus mirabilis [23]): > 64 µg/mL
- MIC (Providencia stuartii): > 32 µg/mL
- MIC (Salmonella typhimurium): > 32 µg/mL
- MIC (Serratia marcescens): 32 µg/mL (≈ 22.9 µM)
- MIC (Pseudomonas aeruginosa [24]): > 32 µg/mL
- MIC (Staphylococcus aureus [25]): > 32 µg/mL
- Activity (Escherichia coli [26]): Active
- Activity (Escherichia coli [27]): Active
- Activity (Escherichia coli [28]): Active
- Activity (Escherichia coli [29]): Active
- Activity (Escherichia coli [30]): Active
- Activity (Klebsiella pneumoniae [31]): Active
- Activity (Klebsiella pneumoniae [32]): Active
- Activity (Klebsiella pneumoniae [33]): Active
- Activity (Klebsiella pneumoniae [34]): Active
- Activity (Klebsiella pneumoniae [35]): Active
- Drug uptake [36]: Active
- Drug uptake [37]: Active
- Drug uptake [38]: ~ 60 ng
- Drug uptake [39]: ~ 60 ng
- Drug uptake [40]: ~ 60 ng
- Drug uptake [41]: ~ 60 ng
- Kd [42]: 0.6 µM
- Kd (Lipopolysaccharide (LPS) [43]): 5.7 µM
- Kd (Lipopolysaccharide (LPS) [44]): 13.5 µM
- Activity (Cell membrane [45]): inactive
- Activity (Cell membrane [46]): inactive
- Activity (Cell membrane [47]): Active
- Activity (Cell membrane [48]): inactive
- Activity (Cell membrane [49]): Active
